Source: ChEMBL document CHEMBL1201862, “PubChem BioAssay data set” (2004)
Where “and” joins values, the source holds several entries; their conditions need not be identical. Identical values can stand only once. Calls of active or inactive are those of the source.

Columns and labels:
[1] = HEK-293T cell viability reduction – luminescence, B-cell screen hits, cytotoxicity control for BCR NF-kB inhibitor project, dose response (AID 489021); format: functional, cell-based;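 note: HEK-293T cells carrying an NF-kB luciferase reporter; cells exposed to compound for about 14 hours before viability readout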
[2] = target: G-protein coupled receptor 55 (Homo sapiens, UniProt Q9Y2T6); experiment: inhibition of LPI-stimulated GPR55 beta-arrestin translocation – imaging, U2OS, beta-arrestin-GFP, LPI agonist, primary screen (AID 2013); format: functional;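 note: antagonist potency measured as reduced agonist-driven arrestin aggregation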
Sequence of G-protein coupled receptor 55 (Q9Y2T6 whole entry): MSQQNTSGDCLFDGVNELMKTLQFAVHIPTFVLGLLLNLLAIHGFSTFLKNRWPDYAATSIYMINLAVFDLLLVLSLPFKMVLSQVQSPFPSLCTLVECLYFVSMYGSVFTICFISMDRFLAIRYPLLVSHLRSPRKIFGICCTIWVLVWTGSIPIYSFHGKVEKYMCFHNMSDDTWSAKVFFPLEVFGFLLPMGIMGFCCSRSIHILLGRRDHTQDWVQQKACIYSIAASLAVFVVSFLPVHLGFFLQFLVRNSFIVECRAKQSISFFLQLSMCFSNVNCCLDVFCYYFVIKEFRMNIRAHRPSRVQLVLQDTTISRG

[3] = cells; format: functional
[4] = A549 cell cytotoxicity, dose response, cytotoxicity control, plate reader, cherry-pick, antagonist series (AID 743412); format: functional, cell-based
[5] = blockers of bursicon-stimulated LGR2 cAMP reporter – cell-based, HEK293, CRE-luciferase reporter, cherry pick, set 2, dose response (AID 743343); format: functional;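 note: transfected cells were stimulated with diluted bursicon conditioned medium after compound addition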
[6] = blockade of melanocortin 4 receptor signaling – cell-based, plate reader, cherry pick, counter-screen for LGR2 antagonist project, dose response (AID 743444); format: functional;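 note: transfected HEK 293 cells stimulated with alpha-MSH peptide; potency of inhibitors of the alpha-MSH evoked signal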
[7] = viability loss in HEK293 cells – cell-based, plate reader, cherry-picked samples, cytotoxicity control, dose response (AID 743446); format: functional
[8] = test system: Vero; experiment: cells; format: functional; settings: Chlorocebus sabaeus
[9] = test system: Streptococcus; experiment: GAS UMAA2166 growth inhibition – luminescence, BacTiterGlo, counter-screen for streptokinase expression inhibitor project, dose response (AID 1915); format: functional, organism-based;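 note: potency for reduction of bacterial viability or growth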
[10] = THP-1 cell cytotoxicity, dose response, cytotoxicity control for non-replicating M. tuberculosis project (AID 489025); format: functional
[11] = target: T1, Kappa-type opioid receptor (Homo sapiens, UniProt P41145); format: functional
T1 sequence (P41145 whole entry): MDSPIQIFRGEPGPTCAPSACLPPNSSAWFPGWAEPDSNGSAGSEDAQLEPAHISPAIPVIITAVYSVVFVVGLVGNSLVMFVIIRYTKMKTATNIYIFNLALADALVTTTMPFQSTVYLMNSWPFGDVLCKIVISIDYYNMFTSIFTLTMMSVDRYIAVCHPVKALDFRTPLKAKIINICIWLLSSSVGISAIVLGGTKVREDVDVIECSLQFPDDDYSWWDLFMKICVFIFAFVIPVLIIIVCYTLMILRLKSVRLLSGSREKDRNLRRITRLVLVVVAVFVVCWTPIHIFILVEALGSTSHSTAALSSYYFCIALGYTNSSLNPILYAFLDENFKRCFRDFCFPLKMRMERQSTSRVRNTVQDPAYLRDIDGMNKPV

[12] = Luminescence Cell-Based Dose Confirmation HTS to Identify Inhibitors of Platelet Dense Granule Release. [Related pubchem assays: 1663 (Primary HTS), 1678 (Summary of Project)]; format: functional
[13] = target: T1, Kappa-type opioid receptor; format: functional; remark: listed apart in the source
[14] = toxicity toward HepG2 liver cells – cell-based, plate reader, cherry-pick, antagonist series, cytotoxicity control, dose response (AID 743416); format: functional
[15] = test system: Streptococcus sp. 'group A'; experiment: Streptococcus pyogenes SK(-)GAS viability under kanamycin – luminescence, BacTiterGlo, confirmation, counter-screen for streptokinase expression inhibitor project, dose response (AID 1900); format: functional, organism-based
[16] = test system: INS1; experiment: INS-1E survival protection against cytokine death – cell-based, luminescence, retest, dose response (AID 449756); format: functional; settings: Rattus norvegicus;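 note: cell death triggered by IL-1 beta plus TNF-alpha plus IFN-gamma mixture; protective hits raise ATP signal compared with cytokine alone wells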
[17] = Vero E6 cell cytotoxicity, dose response, cytotoxicity control for non-replicating M. tuberculosis project, secondary assay (AID 492998); format: functional, VeroE6; settings: Vero C1008
[18] = target: T2, Beta-galactosidase (Escherichia coli, UniProt Q8VNN2); format: functional
T2 sequence (Q8VNN2 whole entry): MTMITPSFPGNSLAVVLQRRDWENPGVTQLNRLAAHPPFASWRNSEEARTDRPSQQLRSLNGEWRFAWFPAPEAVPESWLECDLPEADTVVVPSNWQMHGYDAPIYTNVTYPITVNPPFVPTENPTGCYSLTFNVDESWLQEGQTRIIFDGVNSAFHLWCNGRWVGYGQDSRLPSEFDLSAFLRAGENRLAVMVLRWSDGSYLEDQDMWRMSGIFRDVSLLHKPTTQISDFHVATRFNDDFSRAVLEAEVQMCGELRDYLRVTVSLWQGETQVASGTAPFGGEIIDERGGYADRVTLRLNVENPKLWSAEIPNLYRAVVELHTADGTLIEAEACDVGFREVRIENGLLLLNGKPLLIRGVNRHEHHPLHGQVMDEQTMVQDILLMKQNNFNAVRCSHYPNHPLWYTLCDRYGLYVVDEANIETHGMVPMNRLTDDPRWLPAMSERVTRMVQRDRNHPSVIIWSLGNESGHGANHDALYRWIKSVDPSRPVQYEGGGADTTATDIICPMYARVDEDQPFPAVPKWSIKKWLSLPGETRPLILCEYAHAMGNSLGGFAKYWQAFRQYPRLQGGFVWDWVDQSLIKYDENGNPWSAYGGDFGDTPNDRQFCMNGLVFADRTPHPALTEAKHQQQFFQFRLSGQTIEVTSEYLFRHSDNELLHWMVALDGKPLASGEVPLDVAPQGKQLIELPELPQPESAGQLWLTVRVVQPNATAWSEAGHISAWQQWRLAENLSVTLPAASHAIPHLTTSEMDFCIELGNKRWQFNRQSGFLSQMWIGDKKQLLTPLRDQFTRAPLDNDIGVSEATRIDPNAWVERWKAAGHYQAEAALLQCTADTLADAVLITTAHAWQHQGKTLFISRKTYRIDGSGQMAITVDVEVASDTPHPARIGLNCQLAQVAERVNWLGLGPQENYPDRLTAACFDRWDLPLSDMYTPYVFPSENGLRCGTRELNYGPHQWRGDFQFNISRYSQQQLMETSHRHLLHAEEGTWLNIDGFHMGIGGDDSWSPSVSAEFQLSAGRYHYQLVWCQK

[19] = target: Luciferin 4-monooxygenase (Photinus pyralis, UniProt P08659); experiment: inhibition of purified Photinus pyralis luciferase – biochemical, luminescence, dose response (AID 1891)
Sequence of Luciferin 4-monooxygenase (P08659 whole entry): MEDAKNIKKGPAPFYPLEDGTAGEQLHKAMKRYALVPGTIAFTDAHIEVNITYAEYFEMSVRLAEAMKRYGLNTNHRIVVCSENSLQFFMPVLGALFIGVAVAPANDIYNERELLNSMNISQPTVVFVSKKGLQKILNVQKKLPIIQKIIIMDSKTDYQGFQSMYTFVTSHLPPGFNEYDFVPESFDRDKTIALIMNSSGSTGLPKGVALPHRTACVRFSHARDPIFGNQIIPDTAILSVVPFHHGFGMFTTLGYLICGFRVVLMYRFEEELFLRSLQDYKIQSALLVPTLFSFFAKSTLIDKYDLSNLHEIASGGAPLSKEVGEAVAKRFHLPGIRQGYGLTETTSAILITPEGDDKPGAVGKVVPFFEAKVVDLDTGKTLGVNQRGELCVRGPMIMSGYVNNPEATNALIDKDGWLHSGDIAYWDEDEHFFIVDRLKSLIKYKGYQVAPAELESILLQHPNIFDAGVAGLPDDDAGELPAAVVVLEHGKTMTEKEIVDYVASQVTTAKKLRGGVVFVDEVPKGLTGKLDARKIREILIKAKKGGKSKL

[20] = HepG2 cell cytotoxicity, dose response, cytotoxicity control for non-replicating M. tuberculosis project (AID 489018); format: functional; settings: Mycobacterium tuberculosis
[21] = target: T3, Eukaryotic translation initiation factor 2-alpha kinase 3 (Homo sapiens, UniProt Q9NZJ5); experiment: Counterscreen assay for PERK inhibitors: Dose response cell-based high throughput screening assay to measure inhibition of PERK at 6 hours. [Related pubchem assays: 1522, 1416 ]; format: functional
T3 sequence (Q9NZJ5 whole entry): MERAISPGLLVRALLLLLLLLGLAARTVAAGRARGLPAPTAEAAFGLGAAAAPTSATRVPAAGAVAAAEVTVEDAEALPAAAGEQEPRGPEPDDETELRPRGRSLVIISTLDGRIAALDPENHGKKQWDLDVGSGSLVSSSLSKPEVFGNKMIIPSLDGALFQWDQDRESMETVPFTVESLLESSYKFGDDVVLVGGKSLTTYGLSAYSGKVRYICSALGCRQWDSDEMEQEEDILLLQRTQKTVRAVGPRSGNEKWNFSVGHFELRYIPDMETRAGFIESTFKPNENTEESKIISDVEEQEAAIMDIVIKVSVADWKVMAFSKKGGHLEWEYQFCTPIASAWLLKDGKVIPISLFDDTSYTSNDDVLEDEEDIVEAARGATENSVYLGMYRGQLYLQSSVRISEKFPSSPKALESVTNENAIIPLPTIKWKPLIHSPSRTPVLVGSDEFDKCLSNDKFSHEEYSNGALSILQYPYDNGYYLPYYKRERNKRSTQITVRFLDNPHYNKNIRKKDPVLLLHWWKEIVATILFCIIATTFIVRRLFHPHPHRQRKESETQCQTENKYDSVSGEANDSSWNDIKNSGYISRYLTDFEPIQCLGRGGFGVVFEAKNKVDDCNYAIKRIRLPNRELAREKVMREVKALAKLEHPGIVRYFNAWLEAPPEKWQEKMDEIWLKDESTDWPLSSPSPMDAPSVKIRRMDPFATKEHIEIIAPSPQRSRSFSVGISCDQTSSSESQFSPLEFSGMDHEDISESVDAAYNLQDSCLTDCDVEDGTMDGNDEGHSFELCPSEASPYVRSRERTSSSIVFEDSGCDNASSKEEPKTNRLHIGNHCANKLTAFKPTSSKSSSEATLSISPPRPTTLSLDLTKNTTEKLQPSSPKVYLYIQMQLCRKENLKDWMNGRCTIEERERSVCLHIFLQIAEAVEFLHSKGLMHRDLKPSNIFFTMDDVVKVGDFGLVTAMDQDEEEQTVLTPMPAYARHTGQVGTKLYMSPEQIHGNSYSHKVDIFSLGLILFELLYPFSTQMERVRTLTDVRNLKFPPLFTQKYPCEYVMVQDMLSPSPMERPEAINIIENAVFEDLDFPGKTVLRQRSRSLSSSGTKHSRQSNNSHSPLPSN

[22] = test system: H9c2; experiment: cells; format: functional, cell-based; settings: Rattus norvegicus, H9c2, Myocardium;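 note: confirmatory concentration-response retest of ultra-high-throughput screening hits for modulation of myocardial damage; cell death induced by hydrogen peroxide oxidative stress; compound pretreatment for 60 min then peroxide exposure for 2 h; potency is for protecting the cells against peroxide damage rather than for killing them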
[23] = target: T3, Eukaryotic translation initiation factor 2-alpha kinase 3; experiment: Dose response cell-based high-throughput screening assay to measure PERK inhibition. [Related pubchem assays: 1416 ]; format: functional
[24] = target: Cytochrome P450 2C9 (Homo sapiens, UniProt P11712)
Sequence of Cytochrome P450 2C9 (P11712 whole entry): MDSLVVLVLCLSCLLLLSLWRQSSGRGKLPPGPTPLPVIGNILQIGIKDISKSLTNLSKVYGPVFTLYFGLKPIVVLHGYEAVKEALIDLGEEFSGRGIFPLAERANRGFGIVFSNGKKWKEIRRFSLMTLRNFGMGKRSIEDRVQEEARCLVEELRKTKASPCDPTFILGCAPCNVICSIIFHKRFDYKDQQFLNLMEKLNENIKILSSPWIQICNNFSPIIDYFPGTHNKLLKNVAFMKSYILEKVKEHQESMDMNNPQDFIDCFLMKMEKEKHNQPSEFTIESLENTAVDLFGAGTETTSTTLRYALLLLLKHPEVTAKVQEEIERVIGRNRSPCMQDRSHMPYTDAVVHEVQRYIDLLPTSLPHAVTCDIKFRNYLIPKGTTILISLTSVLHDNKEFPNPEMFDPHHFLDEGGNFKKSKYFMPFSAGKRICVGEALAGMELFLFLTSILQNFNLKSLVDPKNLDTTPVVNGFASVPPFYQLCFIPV

[25] = target: Alkaline phosphatase, placental type (Homo sapiens, UniProt P05187); experiment: human placental alkaline phosphatase inhibition – biochemical, luminescence, confirmation (AID 1512); format: functional
Sequence of Alkaline phosphatase, placental type (P05187 whole entry): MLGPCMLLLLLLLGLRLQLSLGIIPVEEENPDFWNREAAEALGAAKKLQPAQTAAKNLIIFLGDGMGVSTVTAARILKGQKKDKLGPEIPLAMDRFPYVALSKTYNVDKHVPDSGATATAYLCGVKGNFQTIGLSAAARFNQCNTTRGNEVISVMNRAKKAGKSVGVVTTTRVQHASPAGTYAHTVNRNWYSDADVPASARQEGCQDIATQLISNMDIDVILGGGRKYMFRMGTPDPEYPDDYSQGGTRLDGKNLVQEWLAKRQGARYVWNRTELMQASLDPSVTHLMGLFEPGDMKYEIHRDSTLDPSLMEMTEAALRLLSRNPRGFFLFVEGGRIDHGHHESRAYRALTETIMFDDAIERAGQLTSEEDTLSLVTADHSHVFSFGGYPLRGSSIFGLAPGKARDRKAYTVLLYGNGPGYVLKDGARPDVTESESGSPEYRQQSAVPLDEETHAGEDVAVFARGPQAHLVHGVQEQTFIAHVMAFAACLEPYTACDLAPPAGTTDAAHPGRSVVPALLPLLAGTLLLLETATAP

[26] = target: Tumor necrosis factor (Homo sapiens, UniProt P01375); experiment: analog potency on TNFa NF-kB signaling – cell-based, revised, SAR follow-up (AID 2337); format: functional
Sequence of Tumor necrosis factor (P01375 whole entry): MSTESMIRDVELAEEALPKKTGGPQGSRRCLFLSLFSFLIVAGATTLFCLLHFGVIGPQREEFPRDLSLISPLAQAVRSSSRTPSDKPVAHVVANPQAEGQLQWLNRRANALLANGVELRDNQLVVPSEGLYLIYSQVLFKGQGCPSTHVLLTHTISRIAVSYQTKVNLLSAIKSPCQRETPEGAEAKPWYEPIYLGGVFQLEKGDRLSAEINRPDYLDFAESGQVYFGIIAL

[27] = test system: HEK293; experiment: inhibition of NOD1-driven NF-kB reporter – cell-based, luminescence, uHTS, primary screen (AID 1578); format: functional; settings: Homo sapiens
[28] = test system: HEK293; experiment: cells; settings: Homo sapiens
[29] = target: Nucleotide-binding oligomerization domain-containing protein 1 (Homo sapiens, UniProt Q9Y239); experiment: blockers of NOD1 pathway activity – revised, SAR follow-up (AID 2333); format: functional
Sequence of Nucleotide-binding oligomerization domain-containing protein 1 (Q9Y239 whole entry, the tested form may be a part): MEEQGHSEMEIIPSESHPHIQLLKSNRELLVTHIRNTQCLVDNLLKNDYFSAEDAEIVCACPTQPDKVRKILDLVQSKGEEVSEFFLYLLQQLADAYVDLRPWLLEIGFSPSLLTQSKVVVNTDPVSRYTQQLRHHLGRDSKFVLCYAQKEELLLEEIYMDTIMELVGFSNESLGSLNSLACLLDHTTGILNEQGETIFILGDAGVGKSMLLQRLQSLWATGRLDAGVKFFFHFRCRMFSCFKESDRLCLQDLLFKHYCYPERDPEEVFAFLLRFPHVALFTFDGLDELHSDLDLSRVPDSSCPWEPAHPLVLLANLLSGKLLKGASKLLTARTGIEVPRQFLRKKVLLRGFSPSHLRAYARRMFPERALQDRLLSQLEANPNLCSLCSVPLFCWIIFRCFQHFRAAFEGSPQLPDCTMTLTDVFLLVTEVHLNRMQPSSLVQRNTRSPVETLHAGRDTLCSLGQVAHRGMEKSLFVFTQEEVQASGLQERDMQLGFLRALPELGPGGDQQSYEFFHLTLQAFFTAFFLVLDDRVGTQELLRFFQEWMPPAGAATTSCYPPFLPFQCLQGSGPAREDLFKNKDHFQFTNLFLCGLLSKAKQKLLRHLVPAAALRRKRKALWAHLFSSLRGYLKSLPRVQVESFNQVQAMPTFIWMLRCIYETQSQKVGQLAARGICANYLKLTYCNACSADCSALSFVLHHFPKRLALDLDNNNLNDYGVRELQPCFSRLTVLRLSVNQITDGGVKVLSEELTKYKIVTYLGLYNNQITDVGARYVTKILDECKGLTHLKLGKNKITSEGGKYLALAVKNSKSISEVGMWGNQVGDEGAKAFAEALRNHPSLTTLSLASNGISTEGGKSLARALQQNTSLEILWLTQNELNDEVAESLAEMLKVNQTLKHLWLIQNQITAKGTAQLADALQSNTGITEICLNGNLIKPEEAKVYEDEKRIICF

[30] = test system: HEK293; experiment: NOD2 signaling inhibitors in MDP-stimulated cells, cell-based, uHTS, luminescence (AID 2001); format: functional; settings: Homo sapiens
[31] = test system: HEK293; experiment: cells; format: functional, cell-based; settings: Homo sapiens
[32] = test system: HEK293; experiment: cells; format: functional, cell-based; settings: Homo sapiens; remark: listed apart in the source
[33] = target: T4, C-C chemokine receptor type 6 (Homo sapiens, UniProt P51684); experiment: antagonism of CCR6 beta-arrestin recruitment – cell-based, luminescent beta-arrestin readout, dose response (AID 504728); format: functional
T4 sequence (P51684 whole entry): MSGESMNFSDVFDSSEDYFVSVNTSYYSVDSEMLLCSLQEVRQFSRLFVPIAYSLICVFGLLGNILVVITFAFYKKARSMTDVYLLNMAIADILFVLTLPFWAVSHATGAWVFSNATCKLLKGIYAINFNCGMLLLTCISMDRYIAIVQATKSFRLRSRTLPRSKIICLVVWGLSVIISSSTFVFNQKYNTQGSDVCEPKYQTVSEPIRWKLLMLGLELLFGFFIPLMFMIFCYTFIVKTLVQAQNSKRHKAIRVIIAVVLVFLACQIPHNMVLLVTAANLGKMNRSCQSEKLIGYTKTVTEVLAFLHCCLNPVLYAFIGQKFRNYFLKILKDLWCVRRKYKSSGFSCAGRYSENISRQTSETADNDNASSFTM

[34] = target: T2, Beta-galactosidase; experiment: detection-enzyme interference by beta-gal modulators – biochemical, E. coli enzyme, set 3, artefact control for CCR6 antagonist project, dose response (AID 504712); format: functional

Structure (SMILES): O=C(CCCN1C(=O)S/C(=C\C=C\c2ccccc2)C1=O)Nc1ccc(O)cc1
- IC50 [1]: > 80 µM (inactive)

Structure (SMILES): CCN1CC2=C(OC(N)=C(C#N)C2c2cccs2)/C(=C/c2cccs2)C1 (stereo not given)
- IC50 [2]: 5.29 µM (active)

Structure (SMILES): C=CCn1c(S)nnc1CCc1cc(C(C)(C)C)c(O)c(C(C)(C)C)c1
- IC50 [2]: 3 µM (active)

Structure (SMILES): CCOc1ccc2nc(NC(=O)c3ccccn3)sc2c1
- IC50 [3]: 0.43 µM (active)
- AC50 [4]: 3.99 µM (active)
- AC50 [5]: 2 µM (active)
- AC50 [6]: 2.42 µM (active)
- AC50 [7]: 8.52 µM (active)
- CC50 [8]: 20.4 µM (active)
- EC50 [9]: 7.36 µM (active)
- CC50 [10]: 8.2 µM (active)
- IC50 [11]: > 32 µM
- EC50 [12]: 5.58 µM (active)
- IC50 [13]: 6.51 µM (active)
- AC50 [14]: 5.82 µM (active)
- EC50 [15]: 2.98 µM (active)
- AC50 [16]: 3.32 µM (active)
- CC50 [17]: 7.54 µM (active)
- EC50 [18]: > 31.5 µM (inactive)
- EC50 [19]: 0.407 µM (active)
- CC50 [20]: 19.3 µM (active)

Structure (SMILES): COC(=O)Cc1nnc(O)c2ccccc12
- EC50 [21]: > 55.7 µM (not active)
- IC50 [22]: > 79 µM (inactive)
- EC50 [23]: > 55.7 µM (not active)

Structure (SMILES): O=C(CCc1ccccc1)Nc1nnc[nH]1
- AC50 [24]: 39.8 µM (inconclusive)
- IC50 [25]: > 100 µM (inactive)

Structure (SMILES): CCOC(=O)c1ccc(NC(=O)c2ccc(CN3CCc4ccccc4C3)cc2)cc1
- IC50 [26]: 1.4 µM (active) and 140 nM (active)
- EC50 [27]: 0.85 µM (active)
- IC50 [28]: > 20 µM (inactive)
- IC50 [29]: 335 nM (active) and 152 nM (active)
- IC50 [30]: 1.3 µM (inactive)
- IC50 [31]: < 0.312 µM (active)
- IC50 [32]: > 20 µM (inactive)

Structure (SMILES): Cc1nn(-c2ccccc2)c2sc(C(=O)N(CC(=O)NC(C)(C)C)Cc3ccco3)cc12
- IC50 [33]: > 66.6 µM (inactive)
- IC50 [34]: > 66.6 µM (inactive)
